Tests used:
[1] = tested on: gastric ibuprofen-induced ulcer; test: model of gastric ibuprofen-induced ulcer in the rat; assay type: in vivo; settings: ibuprofen alone 100 mg/kg/d oral for 6 days, male Wistar rat
Description: The inventors determined the anti-ulcer effect of Saccharomyces boulardii in the model of gastric ibuprofen-induced ulcer in the rat according to the protocol of Abraham et al. (2005) Dig Dis Sci 50:1 632-1 640. Male Wistar rats obtained from Janvier weighing between 200 and 220 grams are used after acclimatization for at least 7 days in the animal house (temp.=22 ±2° C.; humidity: 50±20%; food SAFE “A04”; nyctohemeral cycle: 12 hours of light and 12 hours of darkness). On D1, the rat receives the test product or the solvent by the oral route. Then, 1 hour later, the rat receives ibuprofen at 100 mg/kg by the oral route, or the solvent for the control group. The rats receive these treatments for 6 consecutive days. The animals go without food for 14-16 hours before the last administration of ibuprofen, but have access to drink. They are placed individually in a metal cage, the floor of which is a grating, to prevent coprophagia. On D6 the rat is sacrificed. […] Macroscopic evaluation of the gastric lesions is carried out as follows: • the stomach is spread out on a cork support with pins; • the number of ulcers on each stomach is counted; • the ulcerated area (mm^2) of haemorrhagic lesions is measured with a grid of squares (×10) and a stereo-microscope (Leica Wild M8) by measuring the length (mm) and width (mm) of each ulceration. […]

[2] = development of body weight of the rats during 6-day oral treatment; assay type: in vivo; settings: Sb 0.3-1.0-3.0 g/kg/d and/or ibuprofen 100 mg/kg/d, 6 days, rat
Description: Male Wistar rats obtained from Janvier weighing between 200 and 220 grams are used after acclimatization for at least 7 days in the animal house (temp.=22 ±2° C.; humidity: 50±20%; food SAFE “A04”; nyctohemeral cycle: 12 hours of light and 12 hours of darkness).
On D1, the rat receives the test product or the solvent by the oral route. Then, 1 hour later, the rat receives ibuprofen at 100 mg/kg by the oral route, or the solvent for the control group. The rats receive these treatments for 6 consecutive days.

CC(C)Cc1ccc(C(C)C(=O)O)cc1 (stereo not drawn) [ibuprofen]
number of ulcers ([1]; gastric mucosa, recorded on day 6): 6.60±1.06 ulcers | total area of ulceration ([1]; measured on day 6): 9.40±1.72 mm^2 | development of body weight relative to the untreated group [2]: do not alter the development of body weight
